Structures are written as SMILES.

The results in this text go back to patent US9233940B2, “Cyclic peptidomimetic compounds as immunomodulators” (Aurigene Discovery Technologies Limited, priority 2014, dated 2016).

One test deals with T1, recombinant mouse PD-L1 (Mus musculus, UniProt Q9EP73).
T1 construct: purchased R&D Systems 1019-B7-100
T1 sequence (Q9EP73 with tags, fused parts or gaps limits assumed): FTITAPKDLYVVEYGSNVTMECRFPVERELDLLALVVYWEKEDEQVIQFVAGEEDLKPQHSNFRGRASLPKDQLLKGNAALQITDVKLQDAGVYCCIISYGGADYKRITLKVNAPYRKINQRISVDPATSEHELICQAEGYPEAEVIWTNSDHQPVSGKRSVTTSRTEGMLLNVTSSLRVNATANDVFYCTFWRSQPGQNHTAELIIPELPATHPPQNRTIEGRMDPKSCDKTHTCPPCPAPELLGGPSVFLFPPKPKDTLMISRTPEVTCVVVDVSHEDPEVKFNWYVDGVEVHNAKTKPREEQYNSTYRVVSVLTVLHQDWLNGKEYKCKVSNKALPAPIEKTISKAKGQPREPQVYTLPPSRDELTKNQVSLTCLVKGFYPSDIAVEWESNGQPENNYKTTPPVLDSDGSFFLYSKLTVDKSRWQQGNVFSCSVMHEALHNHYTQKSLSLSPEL
The experiment in a line: Rescue of mouse splenocyte proliferation in the presence of recombinant PD-L1 (CFSE proliferation assay). In kind it is cell-based. Conditions: 72 h, 100 nM compound; CFSE-labelled mouse splenocytes + anti-CD3/CD28 + PD-L1, 72 h; normalised to stimulated splenocytes as 100%; read-out: Percent rescue of splenocyte proliferation @ 100 nM compound concentration. As for the experimental part:
Rescue of Mouse Splenocyte Proliferation in the Presence of Recombinant PD-L1
Recombinant mouse PD-L1 (rm-PDL-1, cat no: 1019-B7-100; R&D Systems) were used as the source of PD-L1.
Mouse splenocytes harvested from 6-8 weeks old C57 BL6 mice; RPMI 1640 (GIBCO, Cat #11875); DMEM with high glucose (GIBCO, Cat # D6429); Fetal Bovine Serum [Hyclone, Cat # SH30071.03]; Penicillin (10000 unit/ml)-Streptomycin(10,000 μg/ml) Liquid (GIBCO, Cat #15140-122); MEM Sodium Pyruvate solution 100 mM (100×), Liquid (GIBCO, Cat #11360); Nonessential amino acid (GIBCO, Cat #11140); L-Glutamine (GIBCO, Cat #25030); Anti-CD3 antibody (eBiosciences-16-0032); Anti-CD28 antibody (eBiosciences-16-0281); ACK lysis buffer (1 mL) (GIBCO, Cat #-A10492); Histopaque (density-1.083 gm/mL) (SIGMA 10831); Trypan blue solution (SIGMA-T8154); 2 mL Norm Ject Luer Lock syringe—(Sigma 2014-12); 40 μm nylon cell strainer (BD FALCON 35230); Hemacytometer (Bright line-SIGMA Z359629); FACS Buffer (PBS/0.1% BSA): Phosphate Buffered Saline (PBS) pH 7.2 (HiMedia TS1006) with 0.1% Bovine Serum Albumin (BSA) (SIGMA A7050) and sodium azide (SIGMA 08591); 5 mM stock solution of CFSE: CFSE stock solution was prepared by diluting lyophilized CFSE with 180 μL of Dimethyl sulfoxide (DMSO C2H6SO, SIGMA-D-5879) and aliquoted in to tubes for further use. Working concentrations were titrated from 10 μm to 1 μm. (eBioscience-650850-85); 0.05% Trypsin and 0.02% EDTA (SIGMA 59417C); 96-well format ELISA plates (Corning CLS3390); BD FACS caliber (E6016); Recombinant mouse B7-H1/PDL1 Fc Chimera, (rm-PD-L1 cat no: 1019-B7-100).
Splenocytes harvested in a 50 mL falcon tube by mashing mouse spleen in a 40 μm cell strainer were further treated with 1 ml ACK lysis buffer for 5 mins at room temperature. After washing with 9 mL of RPMI complete media, cells were re-suspended in 3 ml of 1×PBS in a 15 mL tube. 3 mL of Histopaque was added carefully to the bottom of the tube without disturbing overlaying splenocyte suspension. After centrifuging at 800×g for 20 min. at room temperature, the opaque layer of splenocytes was collected carefully without disturbing/mixing the layers. Splenocytes were washed twice with cold 1×PBS followed by total cell counting using Trypan Blue exclusion method and used further for cell based assays.
Splenocytes were cultured in RPMI complete media (RPMI+10% fetal bovine serum+1 mM sodium pyruvate+10,000 units/mL penicillin and 10,000 μg/mL streptomycin) and maintained in a CO2 incubator with 5% CO2 at 37° C.
CFSE is a dye that passively diffuses into cells and binds to intracellular proteins. 1×10^6 cells/ml of harvested splenocytes were treated with 5 μm of CFSE in pre-warmed 1×PBS/0.1% BSA solution for 10 mins at 37° C. Excess CFSE was quenched using 5 volumes of ice-cold culture media to the cells and incubated on ice for 5 min. CFSE labelled splenocytes were further given three washes with ice cold complete RPMI media. CFSE labelled 1×10^5 splenocytes added to wells containing either MDA-MB231 cells (1×10^5 cells cultured in high glucose DMEM medium) or recombinant human PDL-1 (100 ng/mL) and test compounds. Splenocytes were stimulated with anti-mouse CD3 and anti-mouse CD28 antibody (1 μg/mL each), and the culture was further incubated for 72 h at 37° C. with 5% CO2. Cells were harvested and washed thrice with ice cold FACS buffer and % proliferation was analysed by flow cytometry with 488 nm excitation and 521 nm emission filters.
Percent splenocyte proliferation was analysed using cell quest FACS program and percent rescue of splenocyte proliferation by compound was estimated after deduction of % background proliferation value and normalising to % stimulated splenocyte proliferation (positive control) as 100%.
Background proliferation: Splenocytes+anti-CD3/CD28+PD-L1
Stimulated splenocytes: Splenocytes+anti-CD3/CD28 stimulation
Compound proliferation: Splenocytes+anti-CD3/CD28+PD-L1+Compound […]
Take `CC(O)[C@@H]1NC(=O)N[C@@H](CC(N)=O)C(=O)NNC(=O)[C@H](CO)NC(=O)COCCOCCNC1=O` (stereo partly drawn) [Compound 1]: the activity at 0.1 µM was determined as 95%.
On the same count and under the same terms, the result for `CC(O)[C@H]1NC(=O)COCCOCCNC(=O)[C@@H](CO)NC(=O)N[C@H](CC(N)=O)C(=O)NNC1=O` (stereo partly drawn) [Compound 2] reads 94%; that for `CC(O)[C@H]1NC(=O)COCCOCCNC(=O)[C@@H](CO)NC(=O)N[C@H](CC(N)=O)C(=O)N(C)NC1=O` (stereo partly drawn) [Compound 3], 58%.
Regarding `CC(O)[C@H]1NC(=O)CCCCCCNC(=O)[C@@H](CO)NC(=O)N[C@H](CC(N)=O)C(=O)NNC1=O` (stereo partly drawn) [Compound 4], the activity at 0.1 µM amounted to 49%.
Same read-out and setting: the result for `CCC(C)[C@@H]1NC(=O)N[C@@H](CC(N)=O)C(=O)NNC(=O)[C@H](CO)NC(=O)COCCOCCNC1=O` (stereo partly drawn) [Compound 5] reads 53%; that for `NC(=O)C[C@@H]1NC(=O)N[C@@H](CC(=O)O)C(=O)NCCOCCOCC(=O)N[C@@H](CO)C(=O)NNC1=O` [Compound 8], 68%.
Still for that read-out and setting: as for `NC(=O)C[C@@H]1NC(=O)N[C@H](CO)C(=O)NCCOCCOCC(=O)N[C@@H](CO)C(=O)NNC1=O` [Compound 9], the figure is 73%; as for `CC(O)[C@@H]1NC(=O)N[C@H](CC(N)=O)C(=O)NNC(=O)[C@@H](C(C)O)NC(=O)COCCOCCNC1=O` (stereo partly drawn) [Compound 10], 89%.

The test is the same for the next values; noted with them: CFSE-labelled mouse splenocytes + anti-CD3/CD28 + PD-L1, 72 h, normalised to stimulated splenocytes as 100%.
Consider `NC(=O)C[C@@H]1NC(=O)N[C@H](CO)C(=O)NCCOCCOCC(=O)N[C@@H](CO)C(=O)NNC1=O` [Compound 12], for which the “Percent rescue of splenocyte proliferation @ 100 nM compound concentration” value came to 91.
